# Assays:
# [1] = system: rat carotid artery balloon injury model; test: Inhibition of late neointimal lesion formation in the 28 day rat carotid artery balloon injury model; type: in vivo
# rabbit iliac stent model = test: Inhibition of restenosis at 28 days in the rabbit iliac stent model; type: in vivo, New Zealand White rabbit; settings: 28 days after stenting, vs placebo
# Protocol: A.2 Inhibition of Restenosis at 28 Days in the Rabbit Iliac Stent Model
# A combined angioplasty and stenting procedure is performed in New Zealand White rabbit iliac arteries. Iliac artery balloon injury is performed by inflating a 3.0×9.0 mm angioplasty balloon in the mid-portion of the artery followed by “pull-back” of the catheter for 1 balloon length. Balloon injury is repeated 2 times, and a 3.0×12 mm stent is deployed at 6 atm for 30 seconds in the iliac artery. Balloon injury and stent placement is then performed on the contralateral iliac artery in the same manner. A post-stent deployment angiogram is performed. All animals receive oral aspirin 40 mg/day daily as anti-platelet therapy and are fed standard low-cholesterol rabbit chow. Twenty-eight days after stenting, animals are anesthetized and euthanized and the arterial tree is perfused at 100 mmHg with lactated Ringer's for several minutes, then perfused with 10% formalin at 100 mmHg for 15 minutes. The vascular section between the distal aorta and the proximal femoral arteries is excised and cleaned of periadventitial tissue. The stented section of artery is embedded in plastic and sections are taken from the proximal, middle, and distal portions of each stent. All sections are stained with hematoxylin-eosin and Movat pentachrome stains. Computerized planimetry is performed to determine the area of the internal elastic lamina (IEL), external elastic lamina (EEL) and lumen. The neointima and neointimal thickness is measured both at and between the stent struts. The vessel area is measured as the area within the EEL. Data are expressed as mean±SEM. Statistical analysis of the histologic data is accomplished using analysis of variance (ANOVA) due to the fact that two stented arteries are measured per animal with a mean generated per animal. A P<0.05 is considered statistically significant.
# An MIA, e.g. a compound of formula 1, e.g. epothilone B is administered orally by gavage at an initial dose one day prior to stenting, then dosed at 50% of the initial dose from the day of stenting until day 27 post-stenting.
# [2] = (+)-Discodermolide release from polymer coatings in plasma; type: physicochemical; settings: coated stent pieces in citrated human plasma, 37° C., plasma changed daily
# Protocol: (§1) A stent (e.g. a Multi-Link Vision stent, Guidant Corp.; or a DRIVER stent, Medtronic Corp.) is weighed and then mounted on a rotating or other support for coating with a polymer or other synthetic or biologic carrier used as a drug reservoir. In an example of an application of one such carrier, while the stent is rotating, a 100 μl aliquot of a solution of polylactide glycolide, 0.75 mg/ml of (+)-discodermolide and 0.0015 mg/ml 2,6-di-tert-butyl-4-methylphenol dissolved in a 50:50 mixture of methanol and tetrahydrofuran, is coated onto it. The coated stent is removed from the support and allowed to air-dry. After a final weighing the amount of coating on the stent is determined.
# A.5 (+)-Discodermolide Release from Polymer Coatings in Plasma
# Release of (+)-discodermolide in plasma can also be studied. 1 cm pieces of a coated stent are put into 1 mL of citrated human plasma (from Helena Labs.) in lyophilized form and reconstituted by adding 1 mL of sterile deionized water. Three sets of stent plasma solutions are incubated at 37° C. and the plasma is changed daily. Different assays are performed on the solution to determine the released (+)-discodermolide concentrations.
# [3] = (+)-Discodermolide release from polymer coatings in aqueous solution; type: physicochemical; settings: polylactide glycolide coated stent pieces in PBS pH 7.4 or PEG 400/water 40/60 v/v, 37° C., solutions changed daily; stable = less than 10% of variation of the release rate
# Protocol: as §1
# A.4 (+)-Discodermolide Release from Polymer Coatings in Aqueous Solution
# Four 2 cm pieces of coated stents as described above are placed into 100 mL of phosphate buffer solution (PBS) having a pH of 7.4. Another 4 pieces from each series are placed into 100 mL of polyethylene glycol (PEG)/water solution (40/60 v/v, MW of PEG=400). The stent pieces are incubated at 37° C. in a shaker. The buffer and PEG solutions are changed daily and different assays are performed on the solution to determine the released (+)-discodermolide concentrations.
# [4] = administered locally to the adventitia via catheter/Alzet minipump
Compound,"infiltration of CD45+ leukocytes ([1]; administered locally to the adventitia adjacent to the ballooned carotid via catheter/Alzet minipump, day 1)","constrictive remodeling [1, 4]","early (9 days post-ballooning) and late (21-31 days post-ballooning) neointimal lesions [1, 4]","CD45-positive leukocyte infiltration into the vessel wall and adventitia ([1]; rats dosed orally, daily, 1 day after balloon injury)","neointimal lesion formation following balloon injury ([1]; rats dosed orally, daily, at 9 and 12 days)",extent of restenotic lesion formation (rabbit iliac stent model; oral gavage from one day prior to stenting until day 27),lesion formation in the portions of artery immediately proximal and immediately distal to the stent (rabbit iliac stent model; oral gavage),"number of inflammatory cells, especially in the area surrounding the stent struts (rabbit iliac stent model; oral gavage)",drug release from coated stents in plasma [2],drug release from coated stents [3]
C/C(=C\c1csc(C)n1)[C@@H]1C[C@@H]2O[C@]2(C)CCC[C@H](C)[C@H](O)[C@@H](C)C(=O)C(C)(C)[C@@H](O)CC(=O)O1 [epothilone B],potent inhibition,potent inhibition,potent inhibition,significantly reduce,significantly reduce,marked reduction,inhibited,significantly reduced,,
(+)-discodermolide,,,,,,,,,stable (+)-discodermolide release,stable (+)-discodermolide release
